{
  "source": "patent US20220362174A1",
  "about": "“Use of R-enantiomer Beta2-agonists for prevent and treatment of pulmonary inflammation and inflammatory remodeling for reduced adverse effects” (priority 2019, published 2022)",
  "key": {"[1]": {"test_system": "LPS-induced RAW264.7 cells", "experiment": "mRNA expression of TNF-α, IL-1β and MCP-1 by quantitative real-time PCR", "format": "cell-based", "details": "pretreated prior to LPS", "description": "(§1) Macrophages were treated without or with (R)/(S)-salbutamol for 1 h prior to LPS stimulation and subsequently incubated for 12 h. […] The fluorescence of the oxidized product (2′,7′-dichlorofluorescein, DCF) was assessed using an LSM710 Laser Scanning Confocal Microscope (Carl Zeiss, Jena, Germany). The concentration of NO in the culture supernatant was measured by assaying the concentrations of nitrite (a stable NO breakdown product) using the Griess assay (Beyotime, Shanghai, China), according to the manufacturer's instructions. The intracellular NO level was detected using the NO-sensitive fluorescence probe DAF-FM DA (Sigma, St. Louis, Mo., USA) (24). Cells were labeled with DAF-FM DA (10 μM) at 37° C. for 30 min and were gently washed three times with PBS. Fluorescence was detected using a LSM710 Laser Scanning Confocal Microscope (Scale bars, 100 μm) (Carl Zeiss, Jena, Germany).\nTo examine the mRNA expression of TNF-α, IL-1β and MCP-1, quantitative real-time PCR was performed. Consistent with the cytokine expression study, the mRNA expression of TNF-α was increased by 2.26-fold in the LPS-induced group compared to the control group (FIG. 8D). The mRNA expression of IL-1β and MCP-1 increased by 12.74-fold (FIG. 8E) and 3.1-fold, respectively, in the LPS-induced group compared to the control group (FIG. 8F)."}, "[2]": {"test_system": "LPS-induced RAW264.7 cells", "experiment": "Intracellular ROS (DCFH-DA)", "format": "cell-based", "description": "as §1\nLPS can promote cell apoptosis through mitochondrial dysfunction, and mitochondria are the major source of ROS."}, "OVA induced asthma mice": {"test_system": "OVA induced asthma mice", "experiment": "Combination therapy of ipratropium with R- and S-salbutamol: lung histopathology (Masson, PAS)", "format": "in vivo", "description": "Left lung tissue was obtained for histopathology and fixed in 10% formalin for 24 h, followed by paraffin-embedded and then were sectioned at 4 μm for routine staining with hematoxylin and eosin (H&E, Solarbio, Beijing, China), or with periodic acid-Schiff (PAS, Solarbio, Beijing, China), or submitted to Masson's trichrome staining (Baso, Zhuhai, China). Images of the stained lung sections were obtained by an Axisplus image-capturing system (Zeiss, Germany) and then a minimum of 3 bronchi (luminal diameter, 150-500 μm) were analyzed per mice for various parameters using an image analyzing computer system (IPP) by pathologists blinded to grouping. Histological score, airway smooth muscle thickness, PAS score (goblet cells hyperplasia), and collagen deposition were evaluated by a semi-quantitative scoring method.\nMethods used were similar as mentioned above. Nebulized aerosol of saline, Methacholine 2 mg/ml (low dose) or 10 mg/ml (high dose) were given via inhalation to OVA induced asthma mice."}, "BALB/c mice [3]": {"test_system": "BALB/c mice", "experiment": "Survival study after LPS challenge (sepsis)", "format": "in vivo", "details": "for Percent of death after LPS challenges, 24 h: Saline + LPS 36.4; for Percent of death after LPS challenges, 36 h: Saline + LPS 72.7; for Percent of death after LPS challenges, 48 h / Percent of death after LPS challenges, 72 h / Percent of death after LPS challenges, 144 h: Saline + LPS 90.9; for Percent of death after LPS challenges, 12 h: Saline + LPS 0; for rate of mortality/death after LPS challenge (in words): in comparison of LPS challenged group without pretreatment (mortality 90.9%)", "description": "Treatment were given intraperitoneally for 3 consecutive days. One hour after the 3rd day treatments, LPS (15 mg/kg) was administered intraperitoneally. The animals were monitored. Survival rate was then recorded every 12 h for 144 hours."}, "RAW264.7 cells": {"test_system": "RAW264.7 cells", "experiment": "Cell viability, CCK-8 assay", "format": "cell-based", "details": "up to 100 μM, with or without LPS (100 ng/mL)"}, "[4]": {"test_system": "LPS-induced macrophage RAW264.7 cells", "experiment": "M1 macrophage cytokines (TNF-α, IL-1β, MCP-1) by ELISA", "format": "cell-based", "description": "as §1\nTo confirm that M1 polarization was predominant over M2 polarization after stimulation with LPS, the levels of typical M1 macrophage cytokines (i.e., TNF-α, IL-1β and MCP-1) were quantified using ELISA; these cytokines are mainly synthesized by macrophages and play an important role in inflammatory diseases (35,36). This invention disclosed that TNF-α […] from 2.62-fold to 0.75-fold of control levels following LPS stimulation (FIG. 8A). IL-1β is a hallmark of many chronic inflammatory diseases in humans and is reportedly associated with acute phase reactions (35,37). […] We conclude that LPS is likely to lead to M1 polarization but not M2 polarization."}, "[5]": {"test_system": "LPS-induced RAW264.7 cells", "experiment": "Seahorse analysis of OCR and ECAR", "format": "cell-based", "details": "LPS-treated cells", "description": "as §1\nMacrophage activation elicited different metabolic profiles. LPS-induced macrophages adopted glycolytic metabolic profiles. This invention disclosed a β2 adrenergic receptor mediated Warburg metabolism (aerobic glycolysis) of in LPS treated macrophages. The OCR and ECAR were measured using an extracellular flux analyzer. […] ECAR is a measurement extracellular acidification rate, an indication of cellular glycolytic rate."}, "BALB/c mice [6]": {"test_system": "BALB/c mice", "experiment": "Lung function measurements 6 hours after LPS (Buxco)", "format": "in vivo", "description": "Methods: Survival study: […] Treatment were given intraperitoneally for 3 consecutive days. […] The animals were monitored. Survival rate was then recorded every 12 h for 144 hours. The lung functions were measured with using Buxco system (Buxco Electronics, USA). After a brief acclimation to the chamber, the mice received an initial baseline challenge of saline. Measures were made at 6 hours after administration of LPS, including tidal volume and Penh which is an indication of airway resistance."}, "[7]": {"test_system": "macrophages from the peritoneal fluid", "experiment": "LPS-induced proliferation and polarization of macrophages from the peritoneal fluid (sepsis)", "format": "in vivo", "source_text": "Macrophage activation and proliferation was considered to be the key step of initiation and development of sepsis. In one embodiment, LPS (PAMPs from bacteria) induced a proliferation and polarization of macrophages from the peritoneal fluid. […] These inhibitory effects can be blocked by using specific β2-recepter blocker."}},
  "note": "“Also recorded” adds a separate entry of the source.",
  "data": [
    {"smiles": "CC(C)(C)NC[C@H](O)c1ccc(O)c(CO)c1", "note": "[R-salbutamol, (R)-Salbutamol]", "values": [
      {"measurement": "mRNA level of TNF-α", "setting": "[1]; LPS alone 2.26-fold of control", "value": "significantly decreased"},
      {"measurement": "mRNA level of MCP-1", "setting": "[1]; LPS alone 3.1-fold of control", "value": "significantly decreased"},
      {"measurement": "mRNA level of IL-1β", "setting": "[1]; LPS alone 12.74-fold of control", "value": "significantly decreased"},
      {"measurement": "production/levels of ROS (in words)", "setting": "[2]; LPS-induced cells", "value": "significantly decreased"},
      {"measurement": "decrease of the level of DCF (ROS)", "setting": "[2]; pretreated before LPS, LPS increased 7.30-fold", "value": 3.38, "unit": "fold"},
      {"measurement": "PAS staining: goblet cell hyperplasia, mucus over secretion, airway edema", "setting": "OVA induced asthma mice; vs OVA model", "value": "significant therapeutic benefit"},
      {"measurement": "Masson staining: collagen deposition, wall thickness of bronchiole and vascular vessels", "setting": "OVA induced asthma mice; vs ova (model) group", "value": "significant therapeutic effects"},
      {"measurement": "Percent of death after LPS challenges, 24 h", "setting": "BALB/c mice [3]; 0.1 mg/kg + LPS", "value": 20, "unit": "%"},
      {"measurement": "Percent of death after LPS challenges, 36 h", "setting": "BALB/c mice [3]; 0.1 mg/kg + LPS", "value": 20, "unit": "%"},
      {"measurement": "Percent of death after LPS challenges, 48 h", "setting": "BALB/c mice [3]; 0.1 mg/kg + LPS", "value": 40, "unit": "%"},
      {"measurement": "Percent of death after LPS challenges, 72 h", "setting": "BALB/c mice [3]; 0.1 mg/kg + LPS", "value": 40, "unit": "%"},
      {"measurement": "Percent of death after LPS challenges, 144 h", "setting": "BALB/c mice [3]; 0.1 mg/kg + LPS", "value": 40, "unit": "%"},
      {"measurement": "Percent of death after LPS challenges, 12 h", "setting": "BALB/c mice [3]; 0.1 mg/kg i.p. 3 days + LPS 15 mg/kg", "value": 0, "unit": "%"},
      {"measurement": "Percent of death after LPS challenges, 12 h", "setting": "BALB/c mice [3]; 0.5 mg/kg + LPS", "value": 0, "unit": "%"},
      {"measurement": "Percent of death after LPS challenges, 24 h", "setting": "BALB/c mice [3]; 0.5 mg/kg + LPS", "value": 0, "unit": "%"},
      {"measurement": "Percent of death after LPS challenges, 36 h", "setting": "BALB/c mice [3]; 0.5 mg/kg + LPS", "value": 0, "unit": "%"},
      {"measurement": "Percent of death after LPS challenges, 48 h", "setting": "BALB/c mice [3]; 0.5 mg/kg + LPS", "value": 0, "unit": "%"},
      {"measurement": "Percent of death after LPS challenges, 72 h", "setting": "BALB/c mice [3]; 0.5 mg/kg + LPS", "value": 0, "unit": "%"},
      {"measurement": "Percent of death after LPS challenges, 144 h", "setting": "BALB/c mice [3]; 0.5 mg/kg + LPS", "value": 0, "unit": "%"},
      {"measurement": "Percent of death, 12 h", "setting": "BALB/c mice [3]; 0.5 mg/kg + saline (no LPS)", "value": 0, "unit": "%"},
      {"measurement": "Percent of death, 24 h", "setting": "BALB/c mice [3]; 0.5 mg/kg + saline (no LPS)", "value": 0, "unit": "%"},
      {"measurement": "Percent of death, 36 h", "setting": "BALB/c mice [3]; 0.5 mg/kg + saline (no LPS)", "value": 0, "unit": "%"},
      {"measurement": "Percent of death, 48 h", "setting": "BALB/c mice [3]; 0.5 mg/kg + saline (no LPS)", "value": 0, "unit": "%"},
      {"measurement": "Percent of death, 72 h", "setting": "BALB/c mice [3]; 0.5 mg/kg + saline (no LPS)", "value": 0, "unit": "%"},
      {"measurement": "Percent of death, 144 h", "setting": "BALB/c mice [3]; 0.5 mg/kg + saline (no LPS)", "value": 0, "unit": "%"},
      {"measurement": "rate of mortality/death after LPS challenge (in words)", "setting": "BALB/c mice [3]", "value": "survived"},
      {"measurement": "rate of mortality/death after LPS challenge (in words)", "setting": "BALB/c mice [3]; listed as (R)-salbutamol", "value": "greatly reduced or even diminished"},
      {"measurement": "cell viability", "setting": "RAW264.7 cells", "value": "no changes in cell viability"},
      {"measurement": "concentration of MCP-1 (ELISA)", "setting": "[4]; LPS alone 1.588 ng/mL", "value": 1.15, "unit": "ng/mL"},
      {"measurement": "IL-1β (ELISA)", "setting": "[4]; LPS alone 2.24-fold", "value": "1.12 fold of control levels"},
      {"measurement": "TNF-α (ELISA)", "setting": "[4]; LPS alone 2.62-fold", "value": "0.75 fold of control levels"},
      {"measurement": "release and expression of cytokines in LPS induced M1 macrophages (in words)", "setting": "[4]; LPS challenge", "value": "inhibited the expression of cytokines"},
      {"measurement": "ECAR, aerobic glycolysis", "setting": "[5]", "value": "inhibited the aerobic glycolysis; also recorded: significantly reduced aerobic glycolysis"},
      {"measurement": "deterioration of respiratory function induced by LPS (in words)", "setting": "BALB/c mice [6]", "value": "restored"},
      {"measurement": "Tidal volume", "setting": "BALB/c mice [6]; 0.1 mg/kg, LPS + saline 0.13 ± 0.03, Saline 0.22 ± 0.02", "value": "0.17 ± 0.02", "unit": "mL"},
      {"measurement": "Penh", "setting": "BALB/c mice [6]; 0.1 mg/kg, LPS + saline 1.31 ± 0.40, Saline 0.54 ± 0.09", "value": "0.68 ± 0.09"},
      {"measurement": "Tidal volume", "setting": "BALB/c mice [6]; 0.5 mg/kg, LPS + saline 0.13 ± 0.03", "value": "0.21 ± 0.02", "unit": "mL"},
      {"measurement": "Penh", "setting": "BALB/c mice [6]; 0.5 mg/kg, LPS + saline 1.31 ± 0.40", "value": "0.53 ± 0.07"},
      {"measurement": "number of macrophages from the peritoneal fluid", "setting": "[7]; LPS sepsis", "value": "significantly reduced toward normal level"},
      {"measurement": "polarized M1 macrophages or M2 macrophages", "setting": "[7]; in comparison of sepsis condition", "value": "significant reduction"}
    ]}
  ]
}
